# Experimental data as given in BindingDB's records for doi:10.1254/jjp.52.195 (Niigata College of Pharmacy, 1990).
# Legend:
# [1] = molecular target: Beta-2 adrenergic receptor (Rattus norvegicus, UniProt P10608)
# [2] = molecular target: Beta-1 adrenergic receptor (Rattus norvegicus, UniProt P18090)
# [3] = molecular target: 5-hydroxytryptamine receptor 1B (Rattus norvegicus, UniProt P28564)
# 5-hydroxytryptamine receptor 1B, sequence (P28564 whole entry): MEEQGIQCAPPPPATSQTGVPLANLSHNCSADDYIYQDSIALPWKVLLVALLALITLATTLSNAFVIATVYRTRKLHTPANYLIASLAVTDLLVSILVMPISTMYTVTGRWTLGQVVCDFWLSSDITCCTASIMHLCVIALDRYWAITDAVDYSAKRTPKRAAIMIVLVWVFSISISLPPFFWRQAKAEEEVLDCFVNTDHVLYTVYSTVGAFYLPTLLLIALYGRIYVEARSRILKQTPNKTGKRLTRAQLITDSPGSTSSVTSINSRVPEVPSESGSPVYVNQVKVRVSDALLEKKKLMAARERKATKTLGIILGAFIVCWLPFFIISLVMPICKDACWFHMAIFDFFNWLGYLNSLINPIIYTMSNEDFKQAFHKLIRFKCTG
# Beta-2 adrenergic receptor, sequence (P10608 whole entry): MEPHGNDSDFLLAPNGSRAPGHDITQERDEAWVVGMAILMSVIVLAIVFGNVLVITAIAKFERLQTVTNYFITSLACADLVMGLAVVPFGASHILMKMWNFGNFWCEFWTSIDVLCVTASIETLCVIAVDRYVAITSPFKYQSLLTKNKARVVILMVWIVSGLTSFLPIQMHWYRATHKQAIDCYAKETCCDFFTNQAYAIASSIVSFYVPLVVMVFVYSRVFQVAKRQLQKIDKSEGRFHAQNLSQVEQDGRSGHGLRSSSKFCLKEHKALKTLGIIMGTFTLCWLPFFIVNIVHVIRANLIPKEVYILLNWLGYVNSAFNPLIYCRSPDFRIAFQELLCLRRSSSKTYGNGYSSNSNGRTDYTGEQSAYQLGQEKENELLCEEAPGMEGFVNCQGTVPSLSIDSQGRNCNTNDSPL
# Beta-1 adrenergic receptor, sequence (P18090 whole entry): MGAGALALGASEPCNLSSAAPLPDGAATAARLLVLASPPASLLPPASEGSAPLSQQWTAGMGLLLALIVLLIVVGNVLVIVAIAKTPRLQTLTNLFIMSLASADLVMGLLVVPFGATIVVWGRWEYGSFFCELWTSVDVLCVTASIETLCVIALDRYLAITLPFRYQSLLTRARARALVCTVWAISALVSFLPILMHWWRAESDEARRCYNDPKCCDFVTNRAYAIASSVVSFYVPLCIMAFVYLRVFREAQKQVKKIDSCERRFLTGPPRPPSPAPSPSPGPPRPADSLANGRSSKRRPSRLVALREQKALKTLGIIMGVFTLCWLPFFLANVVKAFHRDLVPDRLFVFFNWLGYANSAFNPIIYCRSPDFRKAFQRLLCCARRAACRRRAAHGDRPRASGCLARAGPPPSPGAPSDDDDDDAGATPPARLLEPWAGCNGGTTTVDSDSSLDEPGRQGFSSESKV
SMILES,Ki [1],Ki [2],Ki [3]
C=CCOc1ccccc1OCC(O)CNC(C)C (stereo not drawn),0.00977 µM,0.00776 µM,0.174 µM
CC(C)CNCC(O)COc1cccc2ccccc12 (stereo not drawn),0.00245 µM,0.00282 µM,0.0562 µM
"CC(C)NCC(O)c1ccc(NS(C)(=O)=O)cc1 (racemic) [Sotalol,(-)]",,,> 10 µM
CC(CCc1ccccc1)NCC(O)c1ccc(O)c(C(N)=O)c1 (stereo not drawn) [2-hydroxy-5-{1-hydroxy-2-[(4-phenylbutan-2-yl)amino]ethyl}benzamide],,0.012 µM,2 µM
"C=CCc1ccccc1OC[C@@H](O)CNC(C)C [ALPRENOLOL,(-)]",,,0.0708 µM
COCCc1ccc(OCC(O)CNC(C)C)cc1 (stereo not drawn) [Betalok],,,> 10 µM
COc1ccc(OC)c([C@@H](O)[C@H](C)NC(C)(C)C)c1 [CAS_1937-89-9],0.468 µM,3.72 µM,> 10 µM
CC(C)(C)NCC(O)CSc1nc(-c2ccc(C(N)=O)s2)cs1 (stereo not drawn) [CAS_52560-77-7],0.00055 µM,0.00018 µM,0.0107 µM
COc1ccccc1OCCNCC(O)c1ccc(C)c(S(N)(=O)=O)c1 (stereo not drawn) [CAS_93633-92-2],0.0132 µM,0.00437 µM,1.29 µM
"Cc1ccc(OC[C@@H](O)[C@H](C)NC(C)C)c2c1CCC2 [ICI 118,551]",,0.195 µM,3.89 µM
CC(C)NCC(O)COc1cccc2[nH]ccc12 (stereo not drawn) [LB-46],,0.00066 µM,
"CC(=O)Nc1ccc(OCC(O)CNC(C)C)cc1 (stereo not drawn) [Practolol,(-)]",,0.245 µM,> 10 µM
CC(C)NC[C@H](O)COc1ccc(CCOCC2CC2)cc1 [[(2S)-3-{4-[2-(cyclopropylmethoxy)ethyl]phenoxy}-2-hydroxypropyl](propan-2-yl)amine],,,> 10 µM
COCCc1ccc(OC[C@H](O)CNC(C)C)cc1 [d-Metoprolol],,,> 10 µM
COCCc1ccc(OC[C@@H](O)CNC(C)C)cc1 [l-Metoprolol],,,> 10 µM
